# Test results: patent US20050288359A1, “Agents and methods for the treatment of disorders associated with oxidative stress” (Monash University, priority 2002, published 2005)
# Where two headings read alike, the source gives them in different places.
# Columns and labels:
# [1] = test system: neonatal mouse fibroblasts; assay: Oxidant stress-induced cell death of fibroblasts (LDH release); format: cell-based
# Method: FIG. 2 is a plot of the oxidant stress-induced cell death of neonatal mouse fibroblasts exposed to paraquat. Cells (5×10^3 per well) were treated overnight with freshly prepared paraquat or peroxynitrite. Culture medium from wells was assayed for lactate dehydrogenase (LDH) release as a marker of cytotoxicity. […] Values represent means±SEMs of triplicate wells, *P<0.05 difference from untreated cells. The x-axis represents concentration of Paraquat and Peroxynitrite in μM.
# (§1) We developed two cell culture systems that can be used to screen drugs that prevent cell death induced by oxidant stress (FIG. 3, Model A) and excitotoxicity (FIG. 4, Model B). In model A, we utilize cultured fibroblasts that are exposed to paraquat that induces significant death at 10 μM (see FIG. 3). In model B we utilize the NSC-34 motor neuron cell line that can be induced to degenerate via the glutamate excitotixic pathway using the specific agonist fluorowillardine or FW (see FIG. 4).
# [2] = In vitro antioxidant assay: oxidation of linoleic acid to conjugated diene hydroperoxide, free radical initiator AAPH, absorbance at 234 nm; format: biochemical
# From the text: Lipid oxidation can usually be prevented by the addition free radical scavengers (FRS), more commonly known as antioxidants. Their role is to turn reactive and harmful molecules such as hydroxy, nitroxy and superoxide radicals into innocuous molecules that can be passed or converted by biological processes. One of the main pathways that lead to apoptosis in cells is oxidative stress. This event is a product of the action of these harmful radicals on the cell walls and membranes, leading to their breakdown. In terms of the antioxidant evaluation (Scheme 1), […] was utilised as a free radical initiator […], and the efficiency was calculated based on the formation of a conjugated diene hydroperoxide generated through the oxidation of linoleic acid in the presence and absence of a free radical scavenger. The conjugated diene hydroperoxide mimics the products of cellular oxidative stress imposed on the cell wall. The antioxidant can act at any stage of the reaction to stop or slow down the formation of the conjugated diene by reacting with the appropriate radicals (Scheme 1).
# A convenient test to determine the efficiency of antioxidants in aqueous systems was setup using 2,2′-azobis(2-amidinopropane).2HCl ([…]) as a free radical initiator (Scheme 1). The production of conjugated diene hydroperoxide (LOOH) generated through the oxidation of linoleic acid in an aqueous system at 37° C. is monitored at 234 nm for 15 minutes using a Cary 100 UV-Vis spectrophotometer.
# The efficiency is determined according to a standard, that is the generation of free radicals in the absence of an antioxidant. Efficiency is then calculated using the following equation: Efficiency (%)=1−[K2/K1]×100 Where: • K1=rate of oxidation of standard (no antioxidant)=[difference in absorbance]/[time (sec)] • K2=rate of oxidation with antioxidant=[difference in absorbance]/[time (sec)]
# Prior to testing the efficiency of the compounds of the present invention, a number of well known antioxidants including vitamin E and ascorbic acid were tested. Each of the tests for vitamin E and ascorbic acid gave similar results to those presented in the literature. A number of other variables were tested including the amounts of antioxidant, substrate (linoleic acid) and initiator (AAPH). The optimal volumes are shown below: • 2.78 ml 0.05M phosphate buffer pH 7.4 • 30 ul of linoleic acid dispersion stock • 10 ul of 0.01M antioxidant stock
# 150 ul of 40 mM […] stock
# When testing the efficiency of compounds of the present invention in the presence and absence of Ca^2+, HEPES buffered saline was used instead of the standard phosphate buffer and CaCl2 was used as a source of calcium ions.
# [3] = test system: NSC-34D motor neuron cell line; assay: Excitotoxic cell death of motor neuron cell line (MTT reduction); format: cell-based; conditions: exposed for 72 hours
# Method: FIG. 3 is a plot showing the effect of (S)-5-fluorowillardiine (“(S)-5-FW”) on survival (MTT reduction) of NSC-34D motor neuron cell line. These cells were cultured at 1×10^4 cells/well for 48 hours in DMEM/F-12 with 1% (v/v) FCS and then exposed to various concentrations of (S)-5-FW for 72 hours. MTT solution (0.5 mg/ml) was added to cultures for 2 hours, cells were solubilised and MTT reduction quantified as a percentage of […]. Statistically significant differences from control (zero (S)-5-FW) were defined using one-way ANOVA (*P<0.05, ***P<0.001).
# as §1
# [4] = 0.05M phosphate buffer pH 7.4, 37° C., 15 minutes, antioxidant stock 0.01 M, final concentration 33.3 μM
# [5] = HBS with calcium (67%), CaCl2 as calcium source, solvent methanol or DMSO (33%)
# [6] = HBS without calcium (67%), solvent methanol or DMSO (33%)
Molecule,"Efficiency [2, 4] [%]","Efficiency [2, 5] [%]","Efficiency [2, 6] [%]",also measured
O=NOO [peroxynitrite],–,–,–,Cell death (LDH release as marker of cytotoxicity) [1]: not peroxynitrite induced significant cell death
"COc1ccccc1N(CC(=O)O)CC(=O)O [(6), N,N-bis(acetic acid)o-anisidine]",43,35,46,–
C[n+]1ccc(-c2cc[n+](C)cc2)cc1 [paraquat],–,–,–,"Cell death (LDH release as marker of cytotoxicity) ([1]; 5×10^3 cells per well, treated overnight, high doses): induced significant cell death; Concentration that induces significant death of cultured fibroblasts ([1]; model A, oxidant stress): 10 µM"
"CCOC(=O)CN(CC(=O)OCC)c1ccccc1OC [(5), N,N-bis(ethoxycarbonylmethyl)o-anisidine]",47,–,–,–
"O=C(O)CN(CC(=O)O)c1ccccc1OCCOc1ccccc1N(CC(=O)O)CC(=O)O [compound (4), bis(o-aminophenoxy)ethane-N,N,N′,N′-tetraacetic acid]",83,93,93,–
O=C1O[C@H]([C@@H](O)CO)C(O)=C1O [Ascorbic Acid],74,–,–,–
"N[C@@H](Cn1cc(F)c(=O)[nH]c1=O)C(=O)O [(S)-5-FW, (S)-5-fluorowillardiine]",–,–,–,Concentration of maximal cell death effect [3]: 1000 µM; Effect on survival (MTT reduction) ([3]; various concentrations): significant cell death in concentration dependent manner
Bis[2-(bis-ethoxycarbonylmethyl)aminophenoxy]ethane [compound (3)],20,–,–,–
Vitamin E,93,94,90,–
